Columns and labels:
SIPs [1] = experiment: In vitro reprogramming of SIPs, flow cytometry for hematopoietic surface markers; type: cell-based, human; conditions: the two small molecules alone, without RUNX1C
Source text: Heparinized human BM was obtained from healthy donors after informed consent, according to guidelines from the Office of Human Research Protection at the University of Nevada at Reno, Wake Forest Health Sciences, or from commercially available sources (AllCells, LLC, Alameda Calif.). Low density BM mononuclear cells (BMNC) were separated by Ficoll density gradient (1.077 g/ml Sigma, St. Louis, Mo.) and washed twice in Iscove's modified Dulbecco's medium (Invitrogen, Carlsbad, Calif.). Stro-1+ MSC were then isolated using anti-Stro-1 antibody (R&D Systems, Minneapolis, Minn.) and magnetic bead cell sorting (Miltenyi Biotec, Inc., Auburn, Calif.) according to manufacturer's guidelines. Stro-1+ cells were then cultured at low density in 0.02% gelatin (Sigma, St Louis, Mo.) coated flasks using Mesenchymal Stem Cell Growth Medium (MSCGM™, Lonza, Walkersville, Md.) in a humidified 37° C. incubator at 5% CO2.
BM-MSC were transduced on 6-well plates with Oct4- or RUNX1C-encoding lentiviral vector, alone or in combination (or an eGFP-encoding lentiviral vector as a control), at a multiplicity of infection (MOI) of 50 for each vector. Twenty four hours after transduction, the vector-containing media was removed and replaced with fresh MSCGM™ (Lonza). […]

SIPs [2] = experiment: Culture conditions for reprogramming of SIPs (data not shown); type: cell-based, human; conditions: the two factors alone, preliminary studies
Source text: Cultures may be performed in defined serum-free media. This will to facilitate clinical grade production of hematopoietic cells. SIPS ([…]) may be plated in 100 mm gelatin-coated culture plates using serum-free TheraPEAK® MSCGM-CD Mesenchymal Stem Cell Medium (Lonza). Sixteen hours later they may be transduced overnight with the lentivector encoding RUNX1c at an MOI of ˜10. A control group may be transduced with an identical lentivector expressing EGFP to judge transduction efficiency (usually ˜80-90%) and to assess the precision of the cumate “switch”. The following day, the medium may be changed to DMEM/F12/+20% KOSR/1×NEAA/0.1 mM 2-ME/containing rhFGF2 (20 ng/ml) and rhIGFII (30 ng/ml). […] At the same time, media may be supplemented with cumate to turn on expression of RUNX1c (or EGFP) and with VPA (1 mM final concentration) and Bix-01294 (2 μM final concentration).
In order to facilitate differentiation of the HSC into all lineages or into hematopoietic cells having good engraftment potential, additional growth factors, such as TPO and BMP4, may be incorporated into the culture medium. […]

Molecule | expression of CD41 or CD34 (SIPs [1]) | reprogramming of SIPs to the hematopoietic lineage (SIPs [2])
CCCC(CCC)C(=O)O [VPA, valproic acid] | did not induce significant expression | –
rhFGF2: recombinant human FGF2 medium supplement | – | some ability to support some degree of reprogramming
COc1cc2nc(N3CCCN(C)CC3)nc(NC3CCN(Cc4ccccc4)CC3)c2cc1OC [Bix-01294] | did not induce significant expression | –
rhIGFII: recombinant human IGF-II medium supplement | – | some ability to support some degree of reprogramming
